Data on five molecules can be found in ChEMBL document CHEMBL1806393, “Cytotoxic oxasqualenoids from the red alga Laurencia viridis” (Eur J Med Chem, 2011).

In general, IC50 refers to the midpoint of a concentration-inhibition curve.

Calls of active or inactive are those of the source. No cut-off for these calls is given here.

Test system in the first data set: not listed separately
Nature of the data set: Solubility of the compound in water. As to conditions: buffer. It is filed as physicochemical.
For `CC(C)(O)[C@H]1CC[C@](C)([C@@H](O)CC[C@@](O)(CO)C(=O)CC[C@H]2O[C@@H]([C@]3(C)CC[C@@H](Br)C(C)(C)O3)CC[C@]2(C)O)O1` [PRETHYRSENOL A], the solubility entry is given as “Insoluble”.

As for `CC(C)(O)[C@H]1CC[C@](C)([C@H](CCC(O)(COS(=O)(=O)O)[C@H]2CC[C@H]3O[C@@H]([C@]4(C)CC[C@@H](Br)C(C)(C)O4)CC[C@]3(C)O2)OS(=O)(=O)O)O1` (stereo not given in full), the solubility result is listed as “Insoluble”.

On to `CC(C)(O)[C@H]1CC[C@](C)([C@@H](O)CC[C@@H](CO)C2=CC[C@H]3O[C@@H]([C@]4(C)CC[C@@H](Br)C(C)(C)O4)CC[C@]3(C)O2)O1`, for which the solubility entry was “Insoluble”.

For the molecule `CC(C)(O)[C@H]1CC[C@](C)([C@H](CCC(O)(CO)[C@H]2CC[C@H]3O[C@@H]([C@]4(C)CC[C@@H](Br)C(C)(C)O4)CC[C@]3(C)O2)OS(=O)(=O)O)O1` (stereo not given in full), the solubility result is “Insoluble”.

The test system of the next data set is Jurkat. Briefly: Cytotoxicity against human Jurkat cells assessed as inhibition of cell proliferation after 72 hrs by XTT assay. Format: functional, cell-based.
Conditions: not given
On the technique in general: Tetrazolium assays rely on reduction of a dye to a coloured formazan, in cell work by metabolically active cells.
As for `CC(C)(O)[C@H]1CC[C@](C)([C@@H](O)CC[C@@](O)(CO)C(=O)CC[C@H]2O[C@@H]([C@]3(C)CC[C@@H](Br)C(C)(C)O3)CC[C@]2(C)O)O1` [PRETHYRSENOL A], the 50% inhibitory concentration (IC50) worked out at 8.15 µM.

In the case of `CC(C)(O)[C@H]1CC[C@](C)([C@H](CCC(O)(COS(=O)(=O)O)[C@H]2CC[C@H]3O[C@@H]([C@]4(C)CC[C@@H](Br)C(C)(C)O4)CC[C@]3(C)O2)OS(=O)(=O)O)O1` (stereo not given in full), the IC50 came out at 8.6 µM.

As for `CC(C)(O)[C@H]1CC[C@](C)([C@@H](O)CC[C@@H](CO)C2=CC[C@H]3O[C@@H]([C@]4(C)CC[C@@H](Br)C(C)(C)O4)CC[C@]3(C)O2)O1`, the 50% inhibitory concentration (IC50) was 7.55 µM.

On to `CC(C)(O)[C@H]1CC[C@](C)([C@H](CCC(O)(CO)[C@H]2CC[C@H]3O[C@@H]([C@]4(C)CC[C@@H](Br)C(C)(C)O4)CC[C@]3(C)O2)OS(=O)(=O)O)O1` (stereo not given in full), for which the IC50 was 6.9 µM.

Test system in a further data set: not listed separately
Nature of the data set: Inhibition of […] using p-nitrophenyl phosphate as substrate at <100 uM by UV/visible absorption spectroscopic analysis.
Conditions: not given
As to `CC(C)(O)[C@H]1CC[C@](C)([C@@H](O)CC[C@@](O)(CO)C(=O)CC[C@H]2O[C@@H]([C@]3(C)CC[C@@H](Br)C(C)(C)O3)CC[C@]2(C)O)O1` [PRETHYRSENOL A], the inhibition result is “inactive”.

Regarding `CC(C)(O)[C@H]1CC[C@](C)([C@H](CCC(O)(COS(=O)(=O)O)[C@H]2CC[C@H]3O[C@@H]([C@]4(C)CC[C@@H](Br)C(C)(C)O4)CC[C@]3(C)O2)OS(=O)(=O)O)O1` (stereo not given in full), the inhibition result was “inactive”.

For `CC(C)(O)[C@H]1CC[C@](C)([C@@H](O)CC[C@@H](CO)C2=CC[C@H]3O[C@@H]([C@]4(C)CC[C@@H](Br)C(C)(C)O4)CC[C@]3(C)O2)O1`, the inhibition result was “inactive”.

Turning to `CC(C)(O)[C@H]1CC[C@](C)([C@@H](O)CC[C@@](O)(CO)C2=CC[C@H]3O[C@@H]([C@]4(C)CC[C@@H](Br)C(C)(C)O4)CC[C@]3(C)O2)O1`, the inhibition entry was “inactive”.

With `CC(C)(O)[C@H]1CC[C@](C)([C@H](CCC(O)(CO)[C@H]2CC[C@H]3O[C@@H]([C@]4(C)CC[C@@H](Br)C(C)(C)O4)CC[C@]3(C)O2)OS(=O)(=O)O)O1` (stereo not given in full), the inhibition result is “inactive”.

For a further data set, the system named is HeLa. Nature of the data set: Cytotoxicity against human HeLa cells assessed as inhibition of cell proliferation after 72 hrs by XTT assay. Format: functional, cell-based.
Conditions: not given
`CC(C)(O)[C@H]1CC[C@](C)([C@@H](O)CC[C@@](O)(CO)C(=O)CC[C@H]2O[C@@H]([C@]3(C)CC[C@@H](Br)C(C)(C)O3)CC[C@]2(C)O)O1` [PRETHYRSENOL A]: the IC50 worked out at 29 µM.

As for `CC(C)(O)[C@H]1CC[C@](C)([C@H](CCC(O)(COS(=O)(=O)O)[C@H]2CC[C@H]3O[C@@H]([C@]4(C)CC[C@@H](Br)C(C)(C)O4)CC[C@]3(C)O2)OS(=O)(=O)O)O1` (stereo not given in full), the IC50 is 35.5 µM.

Consider `CC(C)(O)[C@H]1CC[C@](C)([C@@H](O)CC[C@@H](CO)C2=CC[C@H]3O[C@@H]([C@]4(C)CC[C@@H](Br)C(C)(C)O4)CC[C@]3(C)O2)O1`, for which the 50% inhibitory concentration (IC50) came to 23 µM.

For the molecule `CC(C)(O)[C@H]1CC[C@](C)([C@H](CCC(O)(CO)[C@H]2CC[C@H]3O[C@@H]([C@]4(C)CC[C@@H](Br)C(C)(C)O4)CC[C@]3(C)O2)OS(=O)(=O)O)O1` (stereo not given in full), the half-maximal inhibitory concentration (IC50) is 27.5 µM.

Test system in the next data set: not listed separately
Briefly: Cytotoxicity against human MM144 cells assessed as inhibition of cell proliferation after 72 hrs by XTT assay.
Conditions: not given
It is filed as functional, cell-based.
On to `CC(C)(O)[C@H]1CC[C@](C)([C@@H](O)CC[C@@](O)(CO)C(=O)CC[C@H]2O[C@@H]([C@]3(C)CC[C@@H](Br)C(C)(C)O3)CC[C@]2(C)O)O1` [PRETHYRSENOL A], for which the concentration for half-maximal inhibition (IC50) was 10.2 µM.

Regarding `CC(C)(O)[C@H]1CC[C@](C)([C@H](CCC(O)(COS(=O)(=O)O)[C@H]2CC[C@H]3O[C@@H]([C@]4(C)CC[C@@H](Br)C(C)(C)O4)CC[C@]3(C)O2)OS(=O)(=O)O)O1` (stereo not given in full), the IC50 is 31.5 µM.

In the case of `CC(C)(O)[C@H]1CC[C@](C)([C@@H](O)CC[C@@H](CO)C2=CC[C@H]3O[C@@H]([C@]4(C)CC[C@@H](Br)C(C)(C)O4)CC[C@]3(C)O2)O1`, the IC50 is 7.3 µM.

Regarding `CC(C)(O)[C@H]1CC[C@](C)([C@H](CCC(O)(CO)[C@H]2CC[C@H]3O[C@@H]([C@]4(C)CC[C@@H](Br)C(C)(C)O4)CC[C@]3(C)O2)OS(=O)(=O)O)O1` (stereo not given in full), the IC50 came to 13.5 µM.

Test system in a further data set: not listed separately
Nature of the data set: Cytotoxicity against human CADO-ES1 cells assessed as inhibition of cell proliferation after 72 hrs by XTT assay. Format: functional, cell-based. As to conditions: CADO-ES1, 72 h.
With `CC(C)(O)[C@H]1CC[C@](C)([C@@H](O)CC[C@@](O)(CO)C(=O)CC[C@H]2O[C@@H]([C@]3(C)CC[C@@H](Br)C(C)(C)O3)CC[C@]2(C)O)O1` [PRETHYRSENOL A], the half-inhibitory concentration (IC50) was determined as 14.5 µM.

Regarding `CC(C)(O)[C@H]1CC[C@](C)([C@H](CCC(O)(COS(=O)(=O)O)[C@H]2CC[C@H]3O[C@@H]([C@]4(C)CC[C@@H](Br)C(C)(C)O4)CC[C@]3(C)O2)OS(=O)(=O)O)O1` (stereo not given in full), the 50% inhibitory concentration (IC50) was 17 µM.

Turning to `CC(C)(O)[C@H]1CC[C@](C)([C@@H](O)CC[C@@H](CO)C2=CC[C@H]3O[C@@H]([C@]4(C)CC[C@@H](Br)C(C)(C)O4)CC[C@]3(C)O2)O1`, the IC50 was found to be 16.5 µM.

Take `CC(C)(O)[C@H]1CC[C@](C)([C@H](CCC(O)(CO)[C@H]2CC[C@H]3O[C@@H]([C@]4(C)CC[C@@H](Br)C(C)(C)O4)CC[C@]3(C)O2)OS(=O)(=O)O)O1` (stereo not given in full): the IC50 is 11 µM.
